Results published in patent publication US20240174674A1, “NITROGEN-CONTAINING POLYCYCLIC FUSED RING COMPOUND, PHARMACEUTICAL COMPOSITION THEREOF, PREPARATION METHOD THEREFOR, AND USE THEREOF” (APPLIED PHARMACEUTICAL SCIENCE, INC., priority 2021, published 2024).

How the values were obtained:
RET-wt = RET-wt (Homo sapiens (Human), UniProt P07949); assay: HTRF KinEASE-TK kinase activity test, RET-wt; format: biochemical; conditions: for IC50: HTRF kinase assay; for inhibitory activity against RET-wt compared to that of cabozantinib: versus cabozantinib
RET-wt, sequence (P07949 29-1114): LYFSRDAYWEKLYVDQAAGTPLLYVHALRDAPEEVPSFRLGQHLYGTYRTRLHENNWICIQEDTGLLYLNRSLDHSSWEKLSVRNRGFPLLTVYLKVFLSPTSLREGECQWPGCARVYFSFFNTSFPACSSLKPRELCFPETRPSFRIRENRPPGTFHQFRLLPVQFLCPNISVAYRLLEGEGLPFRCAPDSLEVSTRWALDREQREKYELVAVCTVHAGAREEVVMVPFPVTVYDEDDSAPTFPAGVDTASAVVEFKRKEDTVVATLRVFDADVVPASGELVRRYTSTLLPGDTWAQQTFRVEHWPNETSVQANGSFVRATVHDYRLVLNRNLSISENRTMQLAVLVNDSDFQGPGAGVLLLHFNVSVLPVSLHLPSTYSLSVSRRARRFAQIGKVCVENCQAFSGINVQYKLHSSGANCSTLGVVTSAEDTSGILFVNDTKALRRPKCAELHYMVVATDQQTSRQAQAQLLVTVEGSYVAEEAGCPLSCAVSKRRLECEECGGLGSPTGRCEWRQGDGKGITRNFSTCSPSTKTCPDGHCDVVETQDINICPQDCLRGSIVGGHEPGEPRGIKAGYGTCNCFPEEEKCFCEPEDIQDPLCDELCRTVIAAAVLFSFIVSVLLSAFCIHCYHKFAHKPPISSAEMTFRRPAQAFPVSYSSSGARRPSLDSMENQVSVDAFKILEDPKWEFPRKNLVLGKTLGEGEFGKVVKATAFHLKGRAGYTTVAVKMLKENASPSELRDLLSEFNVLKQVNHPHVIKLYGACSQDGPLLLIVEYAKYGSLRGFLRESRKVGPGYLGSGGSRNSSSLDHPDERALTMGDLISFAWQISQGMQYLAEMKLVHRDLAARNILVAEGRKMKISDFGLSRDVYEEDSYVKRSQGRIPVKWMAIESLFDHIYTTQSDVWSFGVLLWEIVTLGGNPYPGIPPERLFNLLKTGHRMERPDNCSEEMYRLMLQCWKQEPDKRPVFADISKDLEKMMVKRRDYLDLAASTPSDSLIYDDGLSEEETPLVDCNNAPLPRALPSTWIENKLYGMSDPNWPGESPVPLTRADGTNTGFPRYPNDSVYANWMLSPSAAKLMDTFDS

RET G810R = RET G810R (Homo sapiens (Human), UniProt P07949, G810R); assay: HTRF KinEASE-TK kinase activity test, RET G810R; conditions: for inhibitory activity against RET G810R relative to that of selpercatinib (LOXO-292): fold versus selpercatinib (LOXO-292); for IC50: read-out: RET G810R IC50, HTRF kinase assay
RET G810R, sequence (P07949 29-1114 G810R): as the sequence (P07949 29-1114) above, with G782R counted along it

RET V804M = RET V804M (Homo sapiens (Human), UniProt P07949, V804M); assay: HTRF KinEASE-TK kinase activity test, RET V804M; format: biochemical; conditions: for IC50: HTRF kinase assay; for inhibitory activity against RET V804M compared to that of cabozantinib: versus cabozantinib
RET V804M, sequence (P07949 29-1114 V804M): as the sequence (P07949 29-1114) above, with V776M counted along it

Row | SMILES | IC50 (RET-wt) [pM] | inhibitory activity against RET-wt compared to that of cabozantinib (RET-wt) | inhibitory activity against RET G810R relative to that of selpercatinib (LOXO-292) (RET G810R) [times] | IC50 (RET G810R) [pM] | IC50 (RET V804M) [pM] | inhibitory activity against RET V804M compared to that of cabozantinib (RET V804M)
1 | CCOc1cc(-c2ccc(N3CCC(C)(NC(=O)c4ncccc4Cl)CC3)nc2)c2c3cn[nH]c3nn2c1 [Compound 3, 3-chloro-N-(1-(5-(6-ethoxy-1H-pyrazolo[3′,4′:3,4]pyrazolo[1,5-α]pyridin-4-yl)pyridin-2-yl)-4-methylpiperidin-4-yl)-2-picolinamide] | 100 | significantly superior | ≥ 10 | 2900 | 100 | significantly superior
2 | CCOc1cc(-c2ccc(N3CCC(C)(NC(=O)c4ncc(F)cc4Cl)CC3)nc2)c2c3cn[nH]c3nn2c1 [Compound 4] | 100 | significantly superior | ≥ 10 | 2300 | 30 | significantly superior
3 | CCOc1cc(-c2ccc(N3CCC(CO)(NC(=O)c4c(F)cccc4F)CC3)nc2)c2c3cn[nH]c3nn2c1 [Compound 11, N-(1-(5-(6-ethoxy-1H-pyrazolo[3′,4′:3,4]pyrazolo[1,5-α]pyridin-4-yl)pyridin-2-yl)-4-(hydroxymethyl)piperidin-4-yl)-2,6-difluorobenzamide] | 100 | significantly superior | ≥ 10 | 360 | 100 | significantly superior
4 | CCOc1cc(-c2ccc(N3CC[C@H](NC(=O)CC(C)C)[C@@H](O)C3)nc2)c2c3cn[nH]c3nn2c1 [Compound 39] | 100 | significantly superior | – | 4200 | 100 | significantly superior
5 | CCOc1cc(-c2ccc(N3CC[C@H](NC(=O)C4(C(F)(F)F)CCC4)[C@@H](O)C3)nc2)c2c3cn[nH]c3nn2c1 [Compound 41] | 100 | significantly superior | ≥ 10 | 2800 | 100 | significantly superior
6 | CCOc1cc(-c2ccc(N3CC[C@H](NC(=O)c4ncccc4Cl)[C@H](O)C3)nc2)c2c3cn[nH]c3nn2c1 [Compound 42] | 100 | significantly superior | ≥ 10 | 1400 | 50 | significantly superior
7 | CCOc1cc(-c2ccc(N3CC[C@H](NC(=O)c4c(F)cccc4Cl)[C@@H](O)C3)nc2)c2c3cn[nH]c3nn2c1 [Compound 44, 2-chloro-N-((3S,4S)-1-(5-(6-ethoxy-1H-pyrazolo[3′,4′:3,4]pyrazolo[1,5-α]pyridin-4-yl)pyridin-2-yl)-3-hydroxypiperidin-4-yl)-6-fluorobenzamide] | 100 | significantly superior | ≥ 10 | 800 | 100 | significantly superior
8 | CCOc1cc(-c2ccc(N3CC[C@H](NC(=O)c4cc(F)ccc4C)[C@@H](O)C3)nc2)c2c3cn[nH]c3nn2c1 [Compound 46] | 100 | significantly superior | ≥ 10 | 1600 | 60 | significantly superior
9 | CCOc1cc(-c2ccc(N3CC[C@H](NC(=O)OC(C)(C)C)[C@@H](O)C3)nc2)c2c3cn[nH]c3nn2c1 [Compound 88, Tert-butyl ((3S,4S)-1-(5-(6-ethoxy-1H-pyrazolo[3′,4′:3,4]pyrazolo[1,5-α]pyridin-4-yl)pyridin-2-yl)-3-hydroxypiperidin-4-yl)carbamate] | 100 | significantly superior | – | 7800 | 200 | significantly superior
